Assay results taken from the CheMixHub viscosity set.
± gives the uncertainty stated by the source.

Assay: xn = mol fraction of the nth substance listed
Settings: 100 kPa

CCNCC + CCC(C)O
viscosity [mPa·s]
Settings | 293.15 K | 298.15 K | 303.15 K | 308.15 K | 313.15 K | 318.15 K | 323.15 K
x1 = 0.0221 | 3.49 ± 0.07 | 2.91 ± 0.06 | 2.42 ± 0.05 | 2.04 ± 0.04 | 1.73 ± 0.04 | 1.49 ± 0.03 | 1.28 ± 0.03
x1 = 0.081 | 3.02 ± 0.06 | 2.54 ± 0.05 | 2.12 ± 0.04 | 1.82 ± 0.04 | 1.55 ± 0.03 | 1.34 ± 0.03 | 1.18 ± 0.03
x1 = 0.1601 | 2.49 ± 0.05 | 2.11 ± 0.04 | 1.8 ± 0.04 | 1.56 ± 0.03 | 1.33 ± 0.03 | 1.16 ± 0.03 | 1.049 ± 0.022
x1 = 0.24 | 2.04 ± 0.04 | 1.75 ± 0.04 | 1.51 ± 0.03 | 1.31 ± 0.03 | 1.15 ± 0.02 | 1.01 ± 0.02 | 0.93 ± 0.02
x1 = 0.3494 | 1.602 ± 0.034 | 1.37 ± 0.03 | 1.17 ± 0.03 | 1.033 ± 0.022 | 0.92 ± 0.02 | 0.83 ± 0.02 | 0.771 ± 0.017
x1 = 0.4395 | 1.32 ± 0.03 | 1.13 ± 0.02 | 0.98 ± 0.02 | 0.867 ± 0.019 | 0.78 ± 0.02 | 0.71 ± 0.02 | 0.66 ± 0.02
x1 = 0.5602 | 1.032 ± 0.022 | 0.868 ± 0.019 | 0.754 ± 0.016 | 0.68 ± 0.02 | 0.62 ± 0.01 | 0.574 ± 0.013 | 0.533 ± 0.012
x1 = 0.65 | 0.827 ± 0.018 | 0.712 ± 0.016 | 0.628 ± 0.014 | 0.57 ± 0.01 | 0.528 ± 0.012 | 0.489 ± 0.011 | 0.459 ± 0.011
x1 = 0.74 | 0.662 ± 0.015 | 0.58 ± 0.01 | 0.515 ± 0.012 | 0.48 ± 0.01 | 0.443 ± 0.01 | 0.416 ± 0.01 | 0.389 ± 0.009
x1 = 0.8503 | 0.496 ± 0.011 | 0.447 ± 0.01 | 0.41 ± 0.01 | 0.38 ± 0.01 | 0.359 ± 0.009 | 0.337 ± 0.008 | 0.318 ± 0.008
x1 = 0.94 | 0.384 ± 0.009 | 0.356 ± 0.009 | 0.335 ± 0.008 | 0.309 ± 0.008 | 0.298 ± 0.008 | 0.284 ± 0.007 | 0.268 ± 0.007
x2 = 0.0129 | 0.336 ± 0.008 | 0.317 ± 0.008 | 0.3 ± 0.01 | 0.284 ± 0.007 | 0.27 ± 0.01 | 0.257 ± 0.007 | 0.244 ± 0.007
